Laboratory results: PMC4242082, “Mechanistic determinants of the directionality and energetics of active export by a heterodimeric ABC transporter” (Nature Communications, 2014)
Changes are numbered by the printed parent chain. Where two headings read alike, the source gives them in different places.

Tests used:
rat TAP1-NBD [1] = target: T1, rat TAP1-NBD (Rattus norvegicus, UniProt P36370); test: biochemical; set-up: fluorescence polarization competition of unlabelled nucleotide against 1 uM ATP-Bodipy, TAP1-NBD
T1 construct: monomer-homodimer equilibrium
T1 sequence (P36370 465-725): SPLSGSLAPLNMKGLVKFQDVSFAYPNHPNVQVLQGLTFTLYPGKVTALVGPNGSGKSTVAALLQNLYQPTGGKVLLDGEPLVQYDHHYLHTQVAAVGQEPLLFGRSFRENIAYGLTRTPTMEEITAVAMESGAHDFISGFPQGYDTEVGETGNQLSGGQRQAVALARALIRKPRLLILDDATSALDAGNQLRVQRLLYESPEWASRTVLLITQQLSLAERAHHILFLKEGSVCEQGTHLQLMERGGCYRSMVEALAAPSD
Experimental: Nucleotide-stripped TAP1-NBD samples were re-concentrated to ~100 μM, and used to make a series of eight twofold dilutions in assay buffer (20 mM Tris, pH 8.0, 50 mM NaCl, 1 mM dithiothreitol) with 1 μM ATP-Bodipy (Invitrogen). A background control contained no protein. For competitive binding experiments, NBDs (25 μM final) were mixed with 1 μM ATP-Bodipy and a series of ten twofold dilutions of unlabelled nucleotide, with samples with no labelled nucleotide serving as background control. Fluorescence polarization was measured in FlexStation 3 with excitation at 488 nm. All samples were run two or three times in triplicates. Data were analysed with Origin (OriginLab Corp.). Binding affinities of unlabelled nucleotides (Kis) were obtained using Ki=IC50/([L]/Kd+1). To explore the molecular mechanism of antigen translocation, wt TAP and the D674A/wt complex were purified and functionally reconstituted in proteoliposomes. […] Furthermore, the Michaelis–Menten kinetics for peptide transport by wt TAP and D674A/wt are equal (Fig. 2c, Supplementary Fig. 2c and Supplementary Table 3), confirming that the affinity for ATP and peptides is not affected by the D-loop substitution.

rat TAP1-NBD [2] = target: T2, rat TAP1-NBD (Rattus norvegicus, UniProt P36370, D645N/D651A); test: X-ray crystal structure, […] Å; type: binding; conditions: crystals pH 8.0; canonical NBD dimer with two ATP
T2 construct: monomer-homodimer equilibrium
T2 sequence (P36370 465-725 D645N/D651A): T1 sequence (P36370 465-725) with D181N, D187A

rat TAP1-NBD [3] = target: T3, rat TAP1-NBD (Rattus norvegicus, UniProt P36370, D651A); test: fluorescence polarization competition with ATP-Bodipy; type: binding
T3 construct: monomer-homodimer equilibrium
T3 sequence (P36370 465-725 D651A): T1 sequence (P36370 465-725) with D187A
Source text: (§1) fluorescence polarization competition with ATP-Bodipy on rat TAP1-NBD | affinities for ATP and ADP of isolated wt and D-loop (D651A) mutant rat TAP1-NBD

rat TAP1-NBD [4] = target: T1, rat TAP1-NBD; test: as above; type: binding
Source text: as §1

[5] = target: T4, TAP (TAP1/TAP2 complex; wt TAP) (Homo sapiens, UniProt Q03518+Q03519); test: biochemical; set-up: species or system Sf9; ATP-agarose competition binding assay with TAP-containing Sf9 membranes; conditions: read-out: ATP binding IC50
T4 construct: full-length heterodimer from Sf9 insect cells (baculovirus), purified and reconstituted in proteoliposomes, or in membranes
T4 sequence (Q03518 1-748): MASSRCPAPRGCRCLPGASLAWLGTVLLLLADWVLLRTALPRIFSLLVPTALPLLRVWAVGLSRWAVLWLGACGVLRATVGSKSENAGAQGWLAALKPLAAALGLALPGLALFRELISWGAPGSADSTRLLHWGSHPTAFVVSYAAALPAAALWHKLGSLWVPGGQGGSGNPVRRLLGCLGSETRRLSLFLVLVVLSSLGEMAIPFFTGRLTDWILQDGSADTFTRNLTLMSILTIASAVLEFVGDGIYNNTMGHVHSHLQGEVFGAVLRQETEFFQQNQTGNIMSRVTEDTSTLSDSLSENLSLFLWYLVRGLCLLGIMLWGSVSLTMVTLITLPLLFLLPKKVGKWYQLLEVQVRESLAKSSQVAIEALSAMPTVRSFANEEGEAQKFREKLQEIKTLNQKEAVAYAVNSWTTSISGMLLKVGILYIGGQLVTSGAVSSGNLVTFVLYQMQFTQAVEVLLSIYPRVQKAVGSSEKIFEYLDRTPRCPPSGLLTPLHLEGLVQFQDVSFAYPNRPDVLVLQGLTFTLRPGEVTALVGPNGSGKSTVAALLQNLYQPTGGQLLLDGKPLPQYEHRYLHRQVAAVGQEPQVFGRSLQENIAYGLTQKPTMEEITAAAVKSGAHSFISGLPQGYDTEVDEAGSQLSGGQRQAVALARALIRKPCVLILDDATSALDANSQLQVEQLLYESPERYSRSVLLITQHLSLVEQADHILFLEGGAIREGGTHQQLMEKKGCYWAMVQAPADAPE
T4 sequence (Q03519 1-686): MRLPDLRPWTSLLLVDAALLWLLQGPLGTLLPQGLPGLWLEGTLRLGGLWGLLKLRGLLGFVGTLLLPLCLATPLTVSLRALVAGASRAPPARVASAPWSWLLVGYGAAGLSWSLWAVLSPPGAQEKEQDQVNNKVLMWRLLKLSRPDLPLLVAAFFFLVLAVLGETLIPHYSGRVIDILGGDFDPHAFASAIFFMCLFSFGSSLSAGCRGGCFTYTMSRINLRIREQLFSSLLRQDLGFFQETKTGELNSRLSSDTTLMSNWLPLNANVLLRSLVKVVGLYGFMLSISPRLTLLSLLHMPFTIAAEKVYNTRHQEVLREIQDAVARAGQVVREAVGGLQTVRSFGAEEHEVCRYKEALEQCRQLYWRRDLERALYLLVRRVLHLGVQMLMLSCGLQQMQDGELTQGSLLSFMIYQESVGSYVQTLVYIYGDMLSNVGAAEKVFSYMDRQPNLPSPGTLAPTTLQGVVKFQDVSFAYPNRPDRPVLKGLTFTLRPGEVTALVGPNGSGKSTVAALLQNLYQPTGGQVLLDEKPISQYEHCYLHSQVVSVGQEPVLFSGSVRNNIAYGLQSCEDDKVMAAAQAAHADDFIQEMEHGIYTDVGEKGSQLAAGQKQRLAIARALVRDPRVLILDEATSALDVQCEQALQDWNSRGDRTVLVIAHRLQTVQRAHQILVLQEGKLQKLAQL

[6] = target: T4, TAP (TAP1/TAP2 complex; wt TAP); test: ATP binding affinity; conditions: type of constant not stated in main text
rat TAP1-NBD [7] = target: T1, rat TAP1-NBD; test: fluorescence polarization, direct titration; type: binding; conditions: pH 8.0, 20 mM Tris, 50 mM NaCl, 1 mM dithiothreitol; labelled compound
Source text: fluorescence polarization, direct titration on rat TAP1-NBD | series of eight twofold dilutions in assay buffer

[8] = target: T5, TAP with tapasin-TAP2 fusion (Tsn-TAP) (Homo sapiens, UniProt Q03518+Q03519); test: competition with 8-azido-[α-32P]ATP photo-crosslinking; type: binding; conditions: 200-fold excess, 1 mM MgCl2, pH 7.4, 4 °C
T5 construct: gene TAP1; purified heterodimer from Sf9 cells in digitonin; TAP2 fused N-terminally to tapasin (TAPBP) only to separate the subunits on the gel
T5 sequence (Q03518 1-748): T4 sequence (Q03518 1-748)
T5 sequence (Q03519 1-686): T4 sequence (Q03519 1-686)
T5 sequence (O15533 21-448 partner): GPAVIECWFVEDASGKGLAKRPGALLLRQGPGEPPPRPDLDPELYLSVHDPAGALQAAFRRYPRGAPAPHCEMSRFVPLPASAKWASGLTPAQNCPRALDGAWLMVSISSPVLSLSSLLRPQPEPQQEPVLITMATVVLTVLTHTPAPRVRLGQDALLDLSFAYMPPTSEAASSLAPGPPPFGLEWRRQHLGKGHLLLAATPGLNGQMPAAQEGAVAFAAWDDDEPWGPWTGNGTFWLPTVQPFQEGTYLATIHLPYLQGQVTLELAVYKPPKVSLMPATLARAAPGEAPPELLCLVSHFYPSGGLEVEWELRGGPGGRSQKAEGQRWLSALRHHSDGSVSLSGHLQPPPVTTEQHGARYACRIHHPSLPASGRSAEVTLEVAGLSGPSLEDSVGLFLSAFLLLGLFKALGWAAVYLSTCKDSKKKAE

Kd (rat TAP1-NBD [7]) [µM]	Molecule	IC50 (rat TAP1-NBD [1]; read-out: IC50 (µM) ATP) [µM]	X-ray crystal structure, 2.65 Å (rat TAP1-NBD [2])	Ki (rat TAP1-NBD [3]) [µM]	Ki (rat TAP1-NBD [4]) [µM]	IC50 [5] [µM]	affinity [6]	IC50 (rat TAP1-NBD [1]; read-out: IC50 (µM) ADP) [µM]	competition with 8-azido-[α-32P]ATP photo-crosslinking [8]
–	Nc1ncnc2c1ncn2[C@@H]1O[C@H](COP(=O)(O)OP(=O)(O)OP(=O)(O)O)[C@@H](O)[C@H]1O [ATP]	139 ± 30	the two ATPs and their binding sites are essentially unaffected by this structural re-organization	148 ± 9	119 ± 13	10 ± 1	all mutants displayed similar affinity for peptides and ATP as compared with wt TAP	–	–
6.1 ± 1.7	ATP-Bodipy	–	–	–	–	–	–	–	–
–	Nc1ncnc2c1ncn2[C@@H]1O[C@H](COP(=O)(O)OP(=O)(O)O)[C@@H](O)[C@H]1O [ADP]	–	–	59 ± 3	59 ± 2	–	–	69 ± 14	wt and D674A/wt TAP showed the same binding properties for ATP, ADP (Fig. 2b)
